Measured values as given in EPA's ToxRefDB 2.

Columns and labels:
[1] = tested on: rat; conditions: Multigenerational reproductive toxicity study, wistar, Oral, Feed, dose end: 4 generation
[2] = tested on: rat; conditions: Prenatal developmental toxicity study, sprague dawley, Oral, Gavage/Intubation, dose end: 19 GD
[3] = tested on: rat; conditions: Prenatal developmental toxicity study, wistar, Oral, Gavage/Intubation, dose end: 15 GD
[4] = tested on: rabbit; conditions: Prenatal developmental toxicity study, new zealand white, Dermal, Topical, dose end: 19 GD
[5] = tested on: rabbit; conditions: Prenatal developmental toxicity study, other, Oral, Gavage/Intubation, dose end: 18 GD
[6] = tested on: rabbit; conditions: Prenatal developmental toxicity study, new zealand white, Oral, Gavage/Intubation, dose end: 18 GD
[7] = group: offspring, developmental / developmental malformation / bone / absent + developmental / developmental malformation / bone / incomplete ossification + …
[8] = group: offspring, systemic / in life observation / body weight / offspring (pup) weight gain
[9] = group: parental, systemic / in life observation / body weight / body weight gain
[10] = group: reproductive, reproductive / reproductive performance / fertility / fertility + reproductive / reproductive performance / pregnancy / pregnancy
[11] = group: reproductive, reproductive / reproductive performance / fertility / fertility + reproductive / reproductive performance / pregnancy / pregnancy + …
[12] = group: developmental, developmental / developmental malformation / bone / bipartite ossification + developmental / developmental malformation / bone / …
[13] = group: maternal, systemic / in life observation / body weight / body weight + systemic / in life observation / clinical signs / abnormal gait + systemic / in…
[14] = group: developmental, developmental / developmental malformation / general / [other]
[15] = group: maternal, systemic / in life observation / body weight / body weight + systemic / in life observation / food consumption / food consumption
[16] = group: developmental, developmental / developmental malformation / innominate artery / [other]
[17] = group: developmental, systemic / in life observation / body weight / fetal weight
[18] = group: maternal, systemic / in life observation / body weight / body weight + systemic / in life observation / body weight / body weight gain + reproductive…
[19] = group: maternal, systemic / in life observation / body weight / body weight + systemic / in life observation / body weight / body weight gain + systemic / in…
[20] = group: developmental, developmental / developmental malformation / bone / [other] + developmental / developmental malformation / bone / curled + developmental / …
[21] = group: maternal, systemic / in life observation / body weight / body weight gain
[22] = group: maternal, systemic / in life observation / body weight / body weight gain + reproductive / reproductive performance / aborted / aborted + reproductive…

CC(O)CCO (configuration not stated) [1,3-Butanediol]
LOAEL [1, 7]: > 12000 mg/kg/day
NOAEL [1, 7]: ≥ 12000 mg/kg/day
LEL [1, 8]: 2500 mg/kg/day
NEL [1, 8]: < 2500 mg/kg/day
LEL [1, 9]: 2500 mg/kg/day
LOAEL [1, 9]: > 12000 mg/kg/day
NEL [1, 9]: < 2500 mg/kg/day
NOAEL [1, 9]: ≥ 12000 mg/kg/day
LEL [1, 10]: 2500 mg/kg/day
NEL [1, 10]: < 2500 mg/kg/day
LOAEL [1, 11]: > 12000 mg/kg/day
NOAEL [1, 11]: ≥ 12000 mg/kg/day

OC(CCl)CCl [1,3-Dichloro-2-propanol]
LEL [2, 12]: 90 mg/kg/day
LOAEL [2, 12]: > 90 mg/kg/day
NEL [2, 12]: 30 mg/kg/day
NOAEL [2, 12]: ≥ 90 mg/kg/day
LOAEL [2, 13]: > 90 mg/kg/day
NEL [2, 13]: 10 mg/kg/day
NOAEL [2, 13]: ≥ 90 mg/kg/day
LEL ([2]; group: maternal, systemic / in life observation / clinical signs / motor activity + systemic / in life observation / food consumption / food consumption + …): 30 mg/kg/day

OCC#CCO [2-Butyne-1,4-diol]
LEL [3, 14]: 80 mg/kg/day
LOAEL [3, 14]: > 80 mg/kg/day
NEL [3, 14]: 40 mg/kg/day
NOAEL [3, 14]: ≥ 80 mg/kg/day
LEL [3, 15]: 80 mg/kg/day
LOAEL [3, 15]: > 80 mg/kg/day
NEL [3, 15]: 40 mg/kg/day
NOAEL [3, 15]: ≥ 80 mg/kg/day

Nc1ncn[nH]1 [Amitrole]
LEL [4, 16]: 1000 mg/kg/day
NEL [4, 16]: < 1000 mg/kg/day
LOAEL [4, 17]: 2000 mg/kg/day
NOAEL ([4]; group: developmental, systemic / in life observation / body weight / fetal weight + developmental / developmental malformation / bone / absent + developmental / …): 1500 mg/kg/day
LOAEL ([4]; group: maternal, systemic / in life observation / body weight / body weight + systemic / in life observation / body weight / body weight gain): 2000 mg/kg/day
LEL [4, 18]: 2000 mg/kg/day
NEL [4, 18]: 1500 mg/kg/day
NOAEL [4, 18]: 1500 mg/kg/day
LEL [5, 17]: 80 mg/kg/day
LOAEL [5, 17]: 80 mg/kg/day
NEL [5, 17]: 20 mg/kg/day
NOAEL [5, 17]: 20 mg/kg/day
LEL [5, 19]: 80 mg/kg/day
LOAEL [5, 19]: 80 mg/kg/day
NEL [5, 19]: 20 mg/kg/day
NOAEL [5, 19]: 20 mg/kg/day
LEL [6, 20]: 40 mg/kg/day
LOAEL [6, 20]: 40 mg/kg/day
NEL [6, 20]: 4 mg/kg/day
NOAEL [6, 20]: 4 mg/kg/day
LEL [6, 21]: 40 mg/kg/day
LOAEL [6, 21]: 40 mg/kg/day
NEL [6, 22]: 4 mg/kg/day
NOAEL [6, 22]: 4 mg/kg/day
